Assay results: paper PMC10766610, “DCAF1-based PROTACs with activity against clinically validated targets overcoming intrinsic- and acquired-degrader resistance” (Nature Communications, 2024)

Legend:
[1] = target: T1, BTK (Homo sapiens, UniProt Q06187); assay: Immunoblot of endogenous BTK in TMD8 cells; assay type: cell-based; design: performed with full-length BTK and endogenous DCAF1; expressed in transfected cells; host or cells: TMD8 cells, lentiviral, blasticidin-selected (TMD8 BTK-GFP/mCh)
Description: Whole cell lysates for immunoblotting were prepared by pelleting cells at 4 °C (300 g) for 3 min. Cell pellets were then washed 1x with PBS and resuspended in RIPA lysis buffer (VWR, cat # 97063-270) supplemented with protease (Thermo Scientific, cat # A32955) and phosphatase (Thermo Scientific, cat # A32957) inhibitor tablets. Lysates were clarified at 16,000 × g for 15 min at 4 °C prior to quantification by Lowry assay (Bio-Rad cat # 5000113 and cat # 5000114). Whole-cell lysates were loaded into 4–20% Criterion TGX Precast 18 well gels (Bio-Rad, cat # 5671094) and separated by electrophoreses at 120 V for 1 h. The gels were transferred to a nitrocellulose membrane using the Trans-Blot Turbo (Bio-Rad) for 7 min and then blocked for 1 h at room temperature in Odyssey blocking buffer (LICOR Biosciences, cat # 927-50000). Membranes were probed with the appropriate primary antibodies (diluted 1:1000) overnight at 4 °C in 20% Odyssey blocking buffer in 1x TBST. Membranes were washed three times with 1x TBST (5 min per wash), and then incubated with IRDye goat anti-mouse (LICOR, cat # 926-32210) or goat anti-rabbit (LICOR, cat # 926-32211) secondary antibody diluted 1:10,000 in 20% Odyssey blocking buffer for 1 h at room temperature. After three 5-min washes with 1x TBST, the immunoblots were visualized using the ODYSSEY Infrared Imaging System (LICOR). Alternatively, SDS-PAGE resolved proteins were transferred to a PVDF membrane using a wet blotting system (Invitrogen). Membranes were blocked in 5% Milk-PBS-Tween 20 for 1 h and incubated with primary antibody over night at 4 °C. Secondary antibodies (secondary antibody: anti-rabbit, goat pAb to Rb-IgG (Abcam, #7090); secondary antibody: anti-mouse, sheep IgG HRP-linked (GE healthcare, #NA931V)) were incubated for 1 h at room temperature (RT) before blots were developed on film using the detection kit SuperSignal West Femto Maximum Sensitivity Substrate (Thermo Fisher, #34096).

[2] = target: T1, BTK; assay: Intracellular BTK engagement NanoBRET, intact HEK293A cells; assay type: cell-based; conditions: 2 h, read-out: IC50 BTK target engagement
Description: Thus, HEK293A cells were batch-transfected by adding 1 μg pLenti6 BTK-Nanoluc vector and 9 μg Transfection Carrier DNA (pcDNA3.1 Hygro+) to 1 mL of Opti-MEM without phenol red (Thermo Fisher). After addition of 40 μL ViaFect (Promega) and incubation for 20 min, the DNA:lipid mixture was added to trypsinized HEK293A cells suspended at 2 × 10^5/mL in 10 ml growth medium. 100 μL of the resulting cell:DNA:lipid suspension was then seeded at 2 × 10^4 cells/well into white, clear-bottom 96-well plates (Costar) that were pre-coated with poly-D-Lysine by incubation for 60 min with 30 μL of a sterile-filtered solution of 0.1 mg PDL (Mpbio) dissolved in phosphate-buffered saline, followed by a wash with 200 μL sterile phosphate-buffered and airdrying. […] To measure BRET, NanoBRET NanoGlo substrate (Promega, final dilution of 1:1000) and Extracellular NanoLuc Inhibitor (Promega, final concentration 20 μM) were added, followed by quantification of donor and acceptor luminescence emission on a Pherastar FX (BMG Labtech) multimode reader using 460 nm band-pass and 610 nm long-pass filters, respectively. […]
The mBU values for each treated sample was then divided by the average mBU value determined based on four DMSO-treated vehicle control samples and multiplied by 100 to arrive at % of vehicle-treated control. […]

[3] = target: T2, BTK kinase domain (Homo sapiens, UniProt Q06187); assay: BTK EPK assay (enzymatic inhibition); assay type: biochemical
T2 construct: BTK kinase domain was mixed in assay buffer
Description: BTK kinase domain was mixed in assay buffer containing 50 mM HEPES pH 7.5, 0.02% Tween20, 0.02 % bovine serum albumin, 1 mM DTT, 0.01 mM Na3VO4, 10 mM b-Glycerolphosphate, 18 mM MgCl2, 1 mM MnCl2 to a 2× concentration of 8 nM. This solution was added to pre-dispensed compound dilution series in black, 384 well -low dead volume plates (Greiner) and the reaction was initiated by the addition of ATP and a BTK consensus peptide (Sequence: 5-Fluo-Ahx-[…]-Nle-P-Nle-NAND-NH2) to a final assay concentrations of 0.047 mM and 0.002 mM, respectively in assay buffer. The reaction was stopped after 60 min at 32 °C by addition of the same volume of spot solution containing 100 mM HEPES pH 7.5, 5% DMSO, 10 mM EDTA, 0.015% Brij 35. Stopped reactions were analyzed on a Caliper LC3000, which was treated with the commercially available coating reagents CR−3 and CR-8 as instructed by the manufacturer. The relative intensities of phosphorylated peptide were calculated. Data was normalized to control wells containing 100 mM EDTA solution instead of the 2× kinase solutions (0%) and DMSO-only control wells (100%). Normalized data was fitted using a sigmoidal fit.

[4] = target: T3, DCAF1(WDR) + BTK (Homo sapiens, UniProt Q06187+Q9Y4B6, E1398S); assay: SPR ternary binding assay, immobilized DCAF1(WDR), BTK (389-659) in buffer; conditions: Fig. 6b
T3 construct: BTK (389-659) or BRD9; His6 (C); His (PreScission site) (N); made in house; host or cells: Sf9 insect cells (both chains)
Description: Supplementary figure 8. SPR data of binary and ternary DCAF1-BTK PROTACs
without additional BTK as analytes. […] In
the middle panel the steady state fit responses are blotted against the PROTAC concentrations The
Source data are provided as a Source Data file

T1 sequence (Q06187 2-659 limits assumed): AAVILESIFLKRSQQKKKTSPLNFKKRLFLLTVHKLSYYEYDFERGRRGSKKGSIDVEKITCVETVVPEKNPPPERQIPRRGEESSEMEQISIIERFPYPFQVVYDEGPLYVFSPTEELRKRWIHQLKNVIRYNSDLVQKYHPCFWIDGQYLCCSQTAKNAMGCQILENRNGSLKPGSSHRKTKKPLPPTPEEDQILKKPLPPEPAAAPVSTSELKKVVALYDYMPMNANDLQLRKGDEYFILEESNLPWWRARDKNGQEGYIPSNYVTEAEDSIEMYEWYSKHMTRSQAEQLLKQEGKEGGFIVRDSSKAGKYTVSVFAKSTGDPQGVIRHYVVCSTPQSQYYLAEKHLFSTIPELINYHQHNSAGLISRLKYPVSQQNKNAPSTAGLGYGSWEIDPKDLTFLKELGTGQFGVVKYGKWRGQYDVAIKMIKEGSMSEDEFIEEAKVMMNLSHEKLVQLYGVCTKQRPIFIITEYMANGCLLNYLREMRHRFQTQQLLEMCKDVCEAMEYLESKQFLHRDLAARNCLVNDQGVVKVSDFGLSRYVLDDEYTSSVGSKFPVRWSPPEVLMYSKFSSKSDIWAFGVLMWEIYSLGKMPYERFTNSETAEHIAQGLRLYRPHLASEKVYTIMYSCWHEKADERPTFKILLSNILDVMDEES
T3 sequence (Q9Y4B6 1073-1399 E1398S): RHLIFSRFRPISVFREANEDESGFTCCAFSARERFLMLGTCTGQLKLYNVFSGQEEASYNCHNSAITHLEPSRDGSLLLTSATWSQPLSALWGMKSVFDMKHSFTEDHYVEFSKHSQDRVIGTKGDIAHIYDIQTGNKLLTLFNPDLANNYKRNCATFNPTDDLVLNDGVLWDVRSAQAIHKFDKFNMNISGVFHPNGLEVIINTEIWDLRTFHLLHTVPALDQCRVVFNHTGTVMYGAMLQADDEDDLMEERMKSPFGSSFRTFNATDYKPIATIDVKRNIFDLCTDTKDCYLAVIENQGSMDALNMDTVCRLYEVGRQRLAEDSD
T3 sequence (Q06187 389-659): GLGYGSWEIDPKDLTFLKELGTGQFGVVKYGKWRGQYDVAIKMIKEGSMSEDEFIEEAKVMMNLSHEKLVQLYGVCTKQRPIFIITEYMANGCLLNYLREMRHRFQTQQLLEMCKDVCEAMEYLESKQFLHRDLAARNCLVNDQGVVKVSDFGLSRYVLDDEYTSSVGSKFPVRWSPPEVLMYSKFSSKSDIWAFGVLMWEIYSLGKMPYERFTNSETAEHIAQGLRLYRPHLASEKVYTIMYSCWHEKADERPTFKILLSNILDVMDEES
T2 sequence (Q06187 402-655 limits assumed): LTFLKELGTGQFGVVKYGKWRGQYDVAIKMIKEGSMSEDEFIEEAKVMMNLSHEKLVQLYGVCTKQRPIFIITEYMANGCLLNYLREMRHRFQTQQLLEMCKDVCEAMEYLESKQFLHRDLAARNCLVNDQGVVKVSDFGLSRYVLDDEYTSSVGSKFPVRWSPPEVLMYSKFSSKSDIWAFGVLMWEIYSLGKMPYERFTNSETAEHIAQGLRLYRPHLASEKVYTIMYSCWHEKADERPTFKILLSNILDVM

CC(=O)N1CCN(c2ccc3c(NCCN)nc(C4(c5ccc(Cl)cc5)CCCCC4)nc3c2)CC1 [compound 13]
BTK reduction by control treatment ([1]; TMD8, 1 µM, 1, 3, 6 and 24 h): did not reduce BTK at any time points

Cc1c(NC(=O)c2ccc(C(C)(C)O)cc2F)cc(F)cc1-c1ncnc2[nH]c(-c3ccc(CNCCOCCOCCOCCOCCOCCOCCOCCOCCOCCOCCOCCOCCC(=O)N4CCN(c5ccc6c(NCCN)nc(C7(c8ccc(Cl)cc8)CCCCC7)nc6c5)CC4)cc3)cc12 [DBt-5]
IC50 [2]: 392 nM
IC50 [3]: 62 nM
Kd [4]: 480 nM

Cc1nc(Nc2ncc(C(=O)Nc3c(C)cccc3Cl)s2)cc(N2CCC(OC3CCN(CCCCCCCC(=O)N4CCN(c5ccc6c(NCCN)nc(C7(c8ccc(Cl)cc8)CCCCC7)nc6c5)CC4)CC3)CC2)n1 [DDa-1]
BTK degradation potency ([1]; TMD8, 24 h, immunoblot): sub-µM potency

Cc1c(NC(=O)N2CC(O)(CC(C)(C)C)C2)cc(F)cc1-c1ncnc2[nH]c(-c3cnn(CC(=O)N4CCC5(CC4)CN(CCNC(=O)CCCC(=O)N4CCN(c6ccc7c(NCCN)nc(C8(c9ccc(Cl)cc9)CCCCC8)nc7c6)CC4)CCO5)c3)cc12 [DBt-10]
concentration giving significant reduction of BTK ([1]; TMD8, 6 h dose-response, immunoblot): 2.5 µM
IC50 [2]: 1680 nM
IC50 [3]: 44 nM
Kd [4]: 33 nM
